Assay results as given in patent US20220096664A1, “STABILIZED FORMULATIONS CONTAINING IODINATED CONTRAST AGENTS AND CYCLODEXTRINS” (Verrow Pharmaceuticals, Inc., priority 2012, published 2022).
Read-outs that look alike come from different tables or passages of the source.

Assays:
[1] = format: physicochemical
Protocol: (§1) The lamps were switched on and the solutions irradiated for 18 to 24 hours for the ultraviolet (UV) lamps or 72 to 90 hours for the visible (VIS) light lamps. At the end of the selected irradiation time, the cuvettes were removed from the photolysis chamber and mixed by inversion 2-times. The caps were then removed and 40 microliter aliquots taken and diluted with 1 mL of an aqueous solution containing ˜0.9 mg/mL sodium thiosulfate. The thiosulfate solution converted any I2, IO3^−, and I3^− present in the solution tor such that total iodine species could be determined in one assay.
(§2) The diluted solutions were assayed by high pressure liquid chromatography (HPLC) using a 4.6×250 mm, C-18, 5 micron particle size, reversed phase column with detection at 280 nm for the contrast agent and 230 nm for the thiosulfate and the iodide ion (r). A mobile phase of 30:70 methanol:aqueous buffer (50 mM KH2PO4+7 mL/L 40% tetrabutyl ammonium hydroxide) at 0.75 mL/min was used for elution. Injection volume was 20 microliters. External standards were prepared containing each contrast agent, potassium iodide, and sodium thiosulfate solution and analyzed along with the irradiated samples. The results were reported as weight percentage iodide formed (mg iodide/mg contrast agent times 100).
(§3) Aqueous solutions were prepared containing 50 mM iodinated contrast agent, 10 mM tromethamine HCl buffer (TRIS), with and without sulfobutylether beta-cyclodextrin with an average degree of substitution-7 (SBE7-β-CD), or 2-hydroxypropyl beta-cyclodextrin with an average degree of substitution of ˜6.3 (HP6.3-β-CD) or ˜4.3 (HP4.3-β-CD). The iohexol solution was prepared by dissolving solid iohexol powder while the other solutions were prepared by diluting commercial formulated products and adding sufficient TRIS buffer to reach 10 mM. The pH of the solutions was adjusted to 7.4 with 0.1N hydrochloric acid.
Aliquots of the solutions were irradiated with visible light for 72 hours (0.52 million lux hours). Other aliquots were autoclaved for 20 minutes at 121° C., cooled to room temperature and then irradiated with ultraviolet light for 18 hours (119 watt hours/m2). The solutions were then processed, analyzed and reported as in Example 2, except that the chromatographic peaks of the contrast agents were evaluated at 300 nm for both samples and standards. […]
Aqueous formulations were prepared containing iodinated contrast agents at concentrations used commercially in medical procedures. Sulfobutylether-cyclodextrin, sodium salt, average degree of substitution ˜7 (SBE7CD) was added at varying agent:CD mole ratios. The formulations were placed in glass vials, sealed with rubber stoppers and aluminum crimps, and autoclaved at 121° C. for 20 minutes. Aliquots of the autoclaved solutions were exposed to UV light for 24 hours (159 watt hours/m^2 or VIS light for 72 hours (0.52 million lux hours) as in Example 2. The solutions were then processed, analyzed and reported as in Example 2, with the following two exceptions; 1) the chromatographic peaks of the contrast agents were evaluated at 300 nm for both samples and standards, and 2) only 20 microliter sample aliquots were taken and diluted for HPLC analysis due to the higher concentrations used in this study. Results of the study are presented in the table below along with the solution compositions.

[2] = format: physicochemical; settings: for Iodide formed: 50 mM agent, 10 mM TRIS, pH 7.4, autoclaved then UV 18 h; for percent change in iodide degradants, UV: 24 h; for percent change in iodide degradants, UV / percent change in iodide degradants, VIS: pH 7.1; for percent change in iodide degradants, VIS: 72 h
Protocol: as §1, §2, §3
Aliquots of the solutions were irradiated with visible light for 72 hours (0.52 million lux hours). Other aliquots were autoclaved for 20 minutes at 121° C., cooled to room temperature and then irradiated with ultraviolet light for 18 hours (119 watt hours/m2). The solutions were then processed, analyzed and reported as in Example 2, except that the chromatographic peaks of the contrast agents were evaluated at 300 nm for both samples and standards.
Aqueous solutions were prepared containing 50 mM iohexol, 0, 2.5, 5, 7.5, or 10 mM tromethamine HCl (TRIS) buffer, with and without 2.5 mM sulfobutylether beta-cyclodextrin with an average degree of substitution-7 (SBE7-β-CD). The pH of the solutions was adjusted to 7.4 with 0.1N hydrochloric acid and the solutions were transferred to glass vials. The vials were stoppered, crimp-capped and autoclaved for 20 minutes at 121° C. The pH of the autoclaved solutions was measured after the solutions were at room temperature.
Aliquots of the autoclaved solutions were irradiated with visible light for 72 hours (0.52 million lux hours) and other aliquots irradiated with ultraviolet light for 18 hours (119 watt hours/m2). The solutions were then processed, analyzed and reported as in Example 2, except that the chromatographic peak of the iohexol was evaluated at 300 nm for both samples and standards.
Aqueous formulations were prepared containing iodinated contrast agents at concentrations used commercially in medical procedures. Sulfobutylether-cyclodextrin, sodium salt, average degree of substitution ˜7 (SBE7CD) was added at varying agent:CD mole ratios. The formulations were placed in glass vials, sealed with rubber stoppers and aluminum crimps, and autoclaved at 121° C. for 20 minutes. […]

Compound: O=C(NCC(O)CO)c1c(I)c(C(=O)NCC(O)CO)c(I)c(N(CCO)C(=O)CO)c1I (stereo not shown) [Ioversol, ioversol]
- percent change in iodide degradants formed in the presence of the SCD ([1]; 20 min, 50 mM, pH 7.4): (−30.8%)
- Iodide Formed, Autoclaved ([1]; Ioversol 160 mg I/mL, pH 7.1, agent:SBE7CD 1:0.05): 0.0241 wt %
- Iodide Formed, Autoclaved ([1]; Ioversol 160 mg I/mL, pH 7.1, no SCD (1:0)): 0.0244 wt %
- Iodide Formed, Autoclaved ([1]; Ioversol 240 mg I/mL, pH 7.1, agent:SBE7CD 1:0.05): 0.0162 wt %
- Iodide Formed, Autoclaved ([1]; Ioversol 240 mg I/mL, pH 7.1, no SCD (1:0)): 0.0160 wt %
- Iodide Formed, Autoclaved ([1]; Ioversol 300 mg I/mL, pH 7.1, agent:SBE7CD 1:0.05): 0.0129 wt %
- Iodide Formed, Autoclaved ([1]; Ioversol 300 mg I/mL, pH 7.1, no SCD (1:0)): 0.0135 wt %
- Iodide Formed, Autoclaved ([1]; Ioversol 320 mg I/mL, pH 7.1, agent:SBE7CD 1:0.05): 0.0127 wt %
- Iodide Formed, Autoclaved ([1]; Ioversol 320 mg I/mL, pH 7.1, no SCD (1:0)): 0.0130 wt %
- Iodide Formed, Autoclaved ([1]; Ioversol 350 mg I/mL, pH 7.1, agent:SBE7CD 1:0.05): 0.0120 wt %
- Iodide Formed, Autoclaved ([1]; Ioversol 350 mg I/mL, pH 7.1, no SCD (1:0)): 0.0124 wt %
- Iodide formed ([2]; agent:SBE7-β-CD 1:0.1): 0.545 wt %
- Iodide formed ([2]; no SCD (1:0)): 0.665 wt %
- percent change in iodide degradants formed in the presence of the SCD ([2]; 18 h, 50 mM, pH 7.4): (−18%)
- percent change in iodide degradants, UV ([2]; 160 mg I/mL): (−24.0%)
- percent change in iodide degradants, UV ([2]; 240 mg I/mL): (−19.2%)
- percent change in iodide degradants, UV ([2]; 300 mg I/mL): (−17.2%)
- percent change in iodide degradants, UV ([2]; 320 mg I/mL): (−36.7%)
- percent change in iodide degradants, UV ([2]; 350 mg I/mL): (−26.8%)
- percent change in iodide degradants, VIS ([2]; 160 mg I/mL): (−9.9%)
- percent change in iodide degradants, VIS ([2]; 240 mg I/mL): (−11.9%)
- percent change in iodide degradants, VIS ([2]; 300 mg I/mL): (−17.4%)
- percent change in iodide degradants, VIS ([2]; 320 mg I/mL): (−14.2%)
- percent change in iodide degradants, VIS ([2]; 350 mg I/mL): (−11.7%)
- Iodide Formed, UV ([2]; Ioversol 160 mg I/mL, pH 7.1, agent:SBE7CD 1:0.05, autoclaved then UV 24 h): 0.171 wt %
- Iodide Formed, VIS ([2]; Ioversol 160 mg I/mL, pH 7.1, agent:SBE7CD 1:0.05, autoclaved then VIS 72 h): 0.0646 wt %
- Iodide Formed, UV ([2]; Ioversol 160 mg I/mL, pH 7.1, no SCD (1:0), autoclaved then UV 24 h): 0.225 wt %
- Iodide Formed, VIS ([2]; Ioversol 160 mg I/mL, pH 7.1, no SCD (1:0), autoclaved then VIS 72 h): 0.0717 wt %
- Iodide Formed, UV ([2]; Ioversol 240 mg I/mL, pH 7.1, agent:SBE7CD 1:0.05, autoclaved then UV 24 h): 0.126 wt %
- Iodide Formed, VIS ([2]; Ioversol 240 mg I/mL, pH 7.1, agent:SBE7CD 1:0.05, autoclaved then VIS 72 h): 0.0400 wt %
- Iodide Formed, UV ([2]; Ioversol 240 mg I/mL, pH 7.1, no SCD (1:0), autoclaved then UV 24 h): 0.156 wt %
- Iodide Formed, VIS ([2]; Ioversol 240 mg I/mL, pH 7.1, no SCD (1:0), autoclaved then VIS 72 h): 0.0454 wt %
- Iodide Formed, UV ([2]; Ioversol 300 mg I/mL, pH 7.1, agent:SBE7CD 1:0.05, autoclaved then UV 24 h): 0.111 wt %
- Iodide Formed, VIS ([2]; Ioversol 300 mg I/mL, pH 7.1, agent:SBE7CD 1:0.05, autoclaved then VIS 72 h): 0.0298 wt %
- Iodide Formed, UV ([2]; Ioversol 300 mg I/mL, pH 7.1, no SCD (1:0), autoclaved then UV 24 h): 0.134 wt %
- Iodide Formed, VIS ([2]; Ioversol 300 mg I/mL, pH 7.1, no SCD (1:0), autoclaved then VIS 72 h): 0.0361 wt %
- Iodide Formed, UV ([2]; Ioversol 320 mg I/mL, pH 7.1, agent:SBE7CD 1:0.05, autoclaved then UV 24 h): 0.0778 wt %
- Iodide Formed, VIS ([2]; Ioversol 320 mg I/mL, pH 7.1, agent:SBE7CD 1:0.05, autoclaved then VIS 72 h): 0.0277 wt %
- Iodide Formed, UV ([2]; Ioversol 320 mg I/mL, pH 7.1, no SCD (1:0), autoclaved then UV 24 h): 0.123 wt %
- Iodide Formed, VIS ([2]; Ioversol 320 mg I/mL, pH 7.1, no SCD (1:0), autoclaved then VIS 72 h): 0.0323 wt %
- Iodide Formed, UV ([2]; Ioversol 350 mg I/mL, pH 7.1, agent:SBE7CD 1:0.05, autoclaved then UV 24 h): 0.0864 wt %
- Iodide Formed, VIS ([2]; Ioversol 350 mg I/mL, pH 7.1, agent:SBE7CD 1:0.05, autoclaved then VIS 72 h): 0.0250 wt %
- Iodide Formed, UV ([2]; Ioversol 350 mg I/mL, pH 7.1, no SCD (1:0), autoclaved then UV 24 h): 0.118 wt %
- Iodide Formed, VIS ([2]; Ioversol 350 mg I/mL, pH 7.1, no SCD (1:0), autoclaved then VIS 72 h): 0.0283 wt %

Compound: CC(=O)N(CC(O)CN(C(C)=O)c1c(I)c(C(=O)NCC(O)CO)c(I)c(C(=O)NCC(O)CO)c1I)c1c(I)c(C(=O)NCC(O)CO)c(I)c(C(=O)NCC(O)CO)c1I (stereo not shown) [Iodixanol, iodixanol]
- Iodide Formed, Autoclaved ([1]; Iodixanol 270 mg I/mL, pH 7.4, agent:SBE7CD 1:0.05): 0.0161 wt %
- Iodide Formed, Autoclaved ([1]; Iodixanol 270 mg I/mL, pH 7.4, no SCD (1:0)): 0.0167 wt %
- Iodide Formed, Autoclaved ([1]; Iodixanol 320 mg I/mL, pH 7.4, agent:SBE7CD 1:0.05): 0.0135 wt %
- Iodide Formed, Autoclaved ([1]; Iodixanol 320 mg I/mL, pH 7.4, no SCD (1:0)): 0.0132 wt %
- Iodide formed ([2]; agent:SBE7-β-CD 1:0.1): 0.220 wt %
- Iodide formed ([2]; no SCD (1:0)): 0.292 wt %
- Iodide Formed, UV ([2]; Iodixanol 270 mg I/mL, pH 7.4, agent:SBE7CD 1:0.05, autoclaved then UV 24 h): 0.0791 wt %
- Iodide Formed, VIS ([2]; Iodixanol 270 mg I/mL, pH 7.4, agent:SBE7CD 1:0.05, autoclaved then VIS 72 h): 0.0288 wt %
- Iodide Formed, UV ([2]; Iodixanol 270 mg I/mL, pH 7.4, no SCD (1:0), autoclaved then UV 24 h): 0.0845 wt %
- Iodide Formed, VIS ([2]; Iodixanol 270 mg I/mL, pH 7.4, no SCD (1:0), autoclaved then VIS 72 h): 0.0325 wt %
- Iodide Formed, UV ([2]; Iodixanol 320 mg I/mL, pH 7.4, agent:SBE7CD 1:0.05, autoclaved then UV 24 h): 0.0743 wt %
- Iodide Formed, VIS ([2]; Iodixanol 320 mg I/mL, pH 7.4, agent:SBE7CD 1:0.05, autoclaved then VIS 72 h): 0.0251 wt %
- Iodide Formed, UV ([2]; Iodixanol 320 mg I/mL, pH 7.4, no SCD (1:0), autoclaved then UV 24 h): 0.0751 wt %
- Iodide Formed, VIS ([2]; Iodixanol 320 mg I/mL, pH 7.4, no SCD (1:0), autoclaved then VIS 72 h): 0.0265 wt %
